Results: patent publication US8431888B2, “Electrospray and nanospray ionization of discrete samples in droplet format” (priority 2009, dated 2013)
Read-outs that look alike come from different tables or passages of the source.

How the values were obtained:
[1] = target: T1, acetylcholinesterase (AchE) (Electrophorus electricus, UniProt O42275); experiment: biochemical; type: biochemical; conditions: for AchE inhibition in screen (choline production): compound tested at 100 μM, triplicate, peak area ratio of choline to internal standard; for IC50: 10 inhibitor concentrations, 20 min at room temperature, choline formation, sigmoidal dose-response fit
T1 construct: purchased Sigma (St. Louis, Mo.) Type VI-S (catalogue number not given)

AchE = conditions: read-out: previously reported IC50, cited from earlier work
[2] = literature values, experimental conditions not identical

T1 sequence (O42275 24-633): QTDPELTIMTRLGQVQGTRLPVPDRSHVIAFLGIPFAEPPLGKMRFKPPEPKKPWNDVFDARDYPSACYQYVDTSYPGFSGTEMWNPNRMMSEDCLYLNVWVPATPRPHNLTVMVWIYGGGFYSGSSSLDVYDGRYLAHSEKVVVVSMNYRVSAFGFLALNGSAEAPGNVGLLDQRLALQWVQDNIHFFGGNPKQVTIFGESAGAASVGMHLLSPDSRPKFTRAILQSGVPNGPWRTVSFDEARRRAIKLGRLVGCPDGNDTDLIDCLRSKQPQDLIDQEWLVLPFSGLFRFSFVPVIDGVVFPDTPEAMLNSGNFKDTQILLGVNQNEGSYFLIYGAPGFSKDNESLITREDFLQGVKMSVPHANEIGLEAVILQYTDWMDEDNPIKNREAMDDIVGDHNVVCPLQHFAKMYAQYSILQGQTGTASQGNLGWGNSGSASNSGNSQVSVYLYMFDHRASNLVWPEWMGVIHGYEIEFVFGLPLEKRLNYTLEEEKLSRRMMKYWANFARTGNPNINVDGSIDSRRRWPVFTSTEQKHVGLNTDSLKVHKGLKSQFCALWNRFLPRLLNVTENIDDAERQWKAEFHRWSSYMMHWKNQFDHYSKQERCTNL

Compound	AchE inhibition in screen (choline production) [1]	IC50 (AchE) [µM]	IC50 [1] [µM]	IC50 (AchE; [2]) [µM]
C[S+](C)[O-] [DMSO]	some inhibition	–	–	–
CC[N+](C)(C)c1cccc(O)c1 [edrophonium]	–	5.4	63 ± 11	–
CC(C)NCC(O)c1ccc(O)c(O)c1 (centres unmarked) [isoproterenol]	some inhibition	–	–	–
CCOC(=O)CC(SP(=S)(OC)OC)C(=O)OCC (centres unmarked) [malathion]	–	–	480 ± 70	370
CN(C)C(=O)Oc1cccc([N+](C)(C)C)c1 [neostigmine]	–	0.0113	–	–
